In paper PMC8815882, “Screening the pandemic response box identified benzimidazole carbamates, Olorofim and ravuconazole as promising drug candidates for the treatment of eumycetoma” (PLoS Neglected Tropical Diseases, 2022):
Converted amounts (≈) assume the structure as drawn. Like-named read-outs stand apart in the source and are kept apart here.

What was measured:
[1] = tested on: M. mycetomatis genome strain MM55; experiment: CLSI M38-A2 based in vitro susceptibility screening (XTT or resazurin), growth at fixed concentration; type: cell-based, Madurella mycetomatis; conditions: Madurella mycetomatis; for Percent fungal survival at 100 µM: replicate 2, M. mycetomatis MM55, read-out: Percentage survival at 100um, 100 uM A (second replicate column)
[2] = tested on: M. mycetomatis MM55; experiment: IC50 determination, 2-fold dilution series 16 to 0.03125 μM; type: cell-based, Madurella mycetomatis
[3] = tested on: ten different M. mycetomatis isolates; experiment: MIC / MIC50 determination (XTT) in ten M. mycetomatis isolates; type: cell-based, Madurella mycetomatis; conditions: for MIC50 / MIC: Madurella mycetomatis
[4] = tested on: M. mycetomatis isolate MM55; experiment: M. mycetomatis grain infection model in G. mellonella larvae, survival; type: in vivo, Galleria mellonella; design: In vivo efficacy, Larvae survival %: concentration or dose not given beside the values; conditions: for Effect on larvae survival Day 4 (words): day four
[5] = mean, read-out: Percentage survival at 25um, 25 uM mean
[6] = replicate A, read-out: Percentage survival at 25um, 25 um A
[7] = replicate B, read-out: Percentage survival at 25um, 25 uM B
[8] = replicate C, read-out: Percentage survival at 25um, 25 uM C
[9] = mean, read-out: Percentage survival at 100um, 100 uM mean
[10] = replicate (first column), read-out: Percentage survival at 100um, 100 uM A
[11] = replicate (second column), read-out: Percentage survival at 100um, 100 uM A
[12] = replicate (third column), read-out: Percentage survival at 100um, 100 uM A
[13] = Madurella mycetomatis, MM55, Table 2, M. mycetomatis MM55, read-out: IC50
[14] = Madurella mycetomatis, MM55, read-out: IC90 mean
[15] = Madurella mycetomatis, MM55, replicate 1, read-out: IC50 1
[16] = Madurella mycetomatis, MM55, replicate 1, read-out: IC90 1
[17] = Madurella mycetomatis, MM55, replicate 2, read-out: IC50 2
[18] = Madurella mycetomatis, MM55, replicate 2, read-out: IC90 2
[19] = Madurella mycetomatis, MM55, replicate 3, read-out: IC50 3
[20] = Madurella mycetomatis, MM55, replicate 3, read-out: IC90 3
[21] = median MIC over ten M. mycetomatis isolates, no asterisk, read-out: MIC50
[22] = over the isolates tested, read-out: MIC50 mean
[23] = isolate CBS247.48, read-out: MIC CBS247.48
[24] = isolate MM14, read-out: MIC MM14
[25] = isolate MM45, read-out: MIC MM45
[26] = isolate MM55, read-out: MIC MM55
[27] = isolate ParijsAl1, read-out: MIC ParijsAl1
[28] = isolate Peru72012, read-out: MIC Peru72012
[29] = 20 μM per larvae, vs infected control
[30] = mean of three, M. mycetomatis MM55, read-out: Percentage survival at 25um, 25 uM mean
[31] = replicate A, M. mycetomatis MM55, read-out: Percentage survival at 25um, 25 um A
[32] = replicate B, M. mycetomatis MM55, read-out: Percentage survival at 25um, 25 uM B
[33] = replicate C, M. mycetomatis MM55, read-out: Percentage survival at 25um, 25 uM C
[34] = mean of three, M. mycetomatis MM55, read-out: Percentage survival at 100um, 100 uM mean
[35] = replicate 1, M. mycetomatis MM55, read-out: Percentage survival at 100um, 100 uM A (first replicate column)
[36] = replicate 3, M. mycetomatis MM55, read-out: Percentage survival at 100um, 100 uM A (third replicate column)
[37] = Madurella mycetomatis, MM55, mean of replicates, read-out: IC50 mean
[38] = Madurella mycetomatis, MM55, mean of replicates, read-out: IC90 mean
[39] = Madurella mycetomatis, MM55, replicate 1, read-out: IC50 1 um
[40] = Madurella mycetomatis, MM55, replicate 1, read-out: IC90 1 um
[41] = Madurella mycetomatis, MM55, replicate 2, read-out: IC50 2 um
[42] = Madurella mycetomatis, MM55, replicate 2, read-out: IC90 2 um
[43] = Madurella mycetomatis, MM55, replicate 3, read-out: IC50 3 um
[44] = Madurella mycetomatis, MM55, replicate 3, read-out: IC90 3 um
[45] = over the tested M. mycetomatis isolates, read-out: MIC50 mean
[46] = G. mellonella larvae infected with M. mycetomatis

SMILES: COC(=O)Nc1nc2c(C)cccc2[nH]1 [MMV1782387]
- activity at 25 µM [1, 5]: 4.41%
- activity at 25 µM [1, 6]: 0.37%
- activity at 25 µM [1, 7]: 7.58%
- activity at 25 µM [1, 8]: 5.29%
- activity at 100 µM [1, 9]: 15.6%
- activity at 100 µM [1, 10]: 4.59%
- activity at 100 µM [1, 11]: 6.95%
- activity at 100 µM [1, 12]: 35.2%
- Drug static or cidal [2]: Static
- IC50 [2, 13]: 3.22 µM
- IC50 ([2]; Madurella mycetomatis, MM55, mean, read-out: IC50 mean): 3.22 µM
- IC90 [2, 14]: > 25 µM
- IC50 [2, 15]: 2.88 µM
- IC90 [2, 16]: > 25 µM
- IC50 [2, 17]: 3.52 µM
- IC90 [2, 18]: 6.2 µM
- IC50 [2, 19]: 3.25 µM
- IC90 [2, 20]: > 25 µM
- MIC50 ([3]; Table 3 and Fig 5, benzimidazole carbamates, M. mycetomatis, read-out: MIC50): 4 µM (≈ 0.821 µg/mL)
- MIC50 [3, 21]: 4 µM (≈ 0.821 µg/mL)
- MIC50 [3, 22]: 4 µM (≈ 0.821 µg/mL)
- MIC [3, 23]: 4 µM (≈ 0.821 µg/mL)
- MIC [3, 24]: 4 µM (≈ 0.821 µg/mL)
- MIC [3, 25]: 4 µM (≈ 0.821 µg/mL)
- MIC [3, 26]: 4 µM (≈ 0.821 µg/mL)
- MIC ([3]; isolate P1, read-out: MIC P1): 4 µM (≈ 0.821 µg/mL)
- MIC [3, 27]: 4 µM (≈ 0.821 µg/mL)
- MIC [3, 28]: 4 µM (≈ 0.821 µg/mL)
- MIC ([3]; isolate So1, read-out: MIC So1): 4 µM (≈ 0.821 µg/mL)
- MIC ([3]; isolate i1, read-out: MIC i1): 4 µM (≈ 0.821 µg/mL)
- MIC ([3]; isolate i11, read-out: MIC i11): 4 µM (≈ 0.821 µg/mL)
- Larvae survival rate on day ten ([4]; 20 μM per larvae at 4, 28, 52 h after infection, day ten): 28.9%
- Effect on larvae survival Day 4 (words) [4, 29]: Increase survival
- Effect on larvae survival Day 10 (words) ([4]; 20 μM per larvae, vs infected control, day ten): able to increase larvae survival
- In vivo efficacy, Enhanced survival compared to control? ([4]; in vivo): yes **
- In vivo efficacy, Larvae survival % ([4]; in vivo): 28.9%

SMILES: O=C(/C(=C/c1ccc(Cl)cc1Cl)n1ccnc1)c1ccc(Cl)cc1 [MMV1634491]
- activity at 25 µM [1, 30]: 0.641%
- activity at 25 µM [1, 31]: -1.32%
- activity at 25 µM [1, 32]: 0.287%
- activity at 25 µM [1, 33]: 2.96%
- activity at 100 µM [1, 34]: 7.66%
- activity at 100 µM [1, 35]: -1.73%
- Percent fungal survival at 100 µM [1]: 4.59%
- activity at 100 µM [1, 36]: 20.1%
- Drug static or cidal ([2]; M. mycetomatis): Static
- IC50 [2, 13]: 2.81 µM
- IC50 [2, 37]: 2.81 µM
- IC90 [2, 38]: 4.7 µM
- IC50 [2, 39]: 2.22 µM
- IC90 [2, 40]: 4.36 µM
- IC50 [2, 41]: 2.88 µM
- IC90 [2, 42]: 4.78 µM
- IC50 [2, 43]: 3.33 µM
- IC90 [2, 44]: 4.95 µM
- MIC50 [3, 21]: 1 µM (≈ 0.378 µg/mL)
- MIC50 [3, 45]: 4 µM (≈ 1.51 µg/mL)
- MIC [3, 23]: 4 µM (≈ 1.51 µg/mL)
- MIC [3, 24]: 4 µM (≈ 1.51 µg/mL)
- MIC [3, 25]: 2 µM (≈ 0.755 µg/mL)
- MIC [3, 26]: 4 µM (≈ 1.51 µg/mL)
- MIC ([3]; isolate P1, read-out: MIC P1): 4 µM (≈ 1.51 µg/mL)
- MIC [3, 27]: 4 µM (≈ 1.51 µg/mL)
- MIC [3, 28]: 4 µM (≈ 1.51 µg/mL)
- MIC ([3]; isolate So1, read-out: MIC So1): 4 µM (≈ 1.51 µg/mL)
- MIC ([3]; isolate i1, read-out: MIC i1): 1 µM (≈ 0.378 µg/mL)
- MIC ([3]; isolate i11, read-out: MIC i11): 4 µM (≈ 1.51 µg/mL)
- In vivo efficacy, Enhanced survival compared to control? [4, 46]: no
- In vivo efficacy, Larvae survival % [4, 46]: 8.9%

SMILES: Clc1cc(Cl)c2c(c1)CCc1ccccc1C2n1ccnc1 (stereo not drawn) [MMV1634492, Eberconazole, reference compound]
- activity at 25 µM [1, 5]: -1.12%
- activity at 25 µM [1, 6]: -3.02%
- activity at 25 µM [1, 7]: -4.98%
- activity at 25 µM [1, 8]: 4.64%
- activity at 100 µM [1, 9]: 3.3%
- activity at 100 µM [1, 10]: -3.84%
- activity at 100 µM [1, 11]: 6.56%
- activity at 100 µM [1, 12]: 7.19%
- Drug static or cidal [2]: Cidal
- IC50 [2, 13]: 0.72 µM
- IC90 [2, 14]: 1.29 µM
- IC50 [2, 15]: 0.58 µM
- IC90 [2, 16]: 1.3 µM
- IC50 [2, 17]: 0.78 µM
- IC90 [2, 18]: 1.21 µM
- IC50 [2, 19]: 0.8 µM
- IC90 [2, 20]: 1.35 µM
- MIC50 [3, 21]: 0.5 µM (≈ 0.165 µg/mL)
- MIC50 [3, 22]: 0.5 µM (≈ 0.165 µg/mL)
- MIC [3, 23]: 2 µM (≈ 0.658 µg/mL)
- MIC [3, 24]: 0.125 µM (≈ 0.0412 µg/mL)
- MIC [3, 25]: 4 µM (≈ 1.32 µg/mL)
- MIC [3, 26]: 0.5 µM (≈ 0.165 µg/mL)
- MIC ([3]; isolate P1, read-out: MIC P1): 1 µM (≈ 0.329 µg/mL)
- MIC [3, 27]: 0.125 µM (≈ 0.0412 µg/mL)
- MIC [3, 28]: 0.5 µM (≈ 0.165 µg/mL)
- MIC ([3]; isolate So1, read-out: MIC So1): 0.125 µM (≈ 0.0412 µg/mL)
- MIC ([3]; isolate i1, read-out: MIC i1): 0.0625 µM (≈ 0.0206 µg/mL)
- MIC ([3]; isolate i11, read-out: MIC i11): 1 µM (≈ 0.329 µg/mL)
- Effect on larvae survival Day 4 (words) [4, 29]: prolonged larvae survival
- In vivo efficacy, Enhanced survival compared to control? ([4]; in vivo): no
- In vivo efficacy, Larvae survival % ([4]; in vivo): 13.3%

SMILES: N#C/C(=C1/SC[C@@H](c2ccc(Cl)cc2Cl)S1)n1ccnc1 [MMV1782224, Luliconazole, reference compound]
- activity at 25 µM [1, 30]: 1.75%
- activity at 25 µM [1, 31]: -0.617%
- activity at 25 µM [1, 32]: 1.37%
- activity at 25 µM [1, 33]: 4.51%
- activity at 100 µM [1, 34]: 6.85%
- activity at 100 µM [1, 35]: -0.151%
- Percent fungal survival at 100 µM [1]: 8.79%
- activity at 100 µM [1, 36]: 11.9%
- Drug static or cidal ([2]; M. mycetomatis): Cidal
- IC50 [2, 13]: < 0.02 µM
- IC50 [2, 37]: < 0.098 µM
- IC90 [2, 38]: < 0.098 µM
- IC50 [2, 39]: < 0.098 µM
- IC90 [2, 40]: < 0.098 µM
- IC50 [2, 41]: < 0.098 µM
- IC90 [2, 42]: < 0.098 µM
- IC50 [2, 43]: < 0.098 µM
- IC90 [2, 44]: < 0.098 µM
- IC50 ([2]; Table 2, M. mycetomatis MM55, read-out: IC50): < 0.03 µM
- MIC50 [3, 21]: < 0.03 µM
- MIC50 [3, 45]: < 0.0312 µM
- MIC [3, 23]: < 0.0312 µM
- MIC [3, 24]: < 0.0312 µM
- MIC [3, 25]: < 0.0312 µM
- MIC [3, 26]: < 0.0312 µM
- MIC ([3]; isolate P1, read-out: MIC P1): < 0.0312 µM
- MIC [3, 27]: < 0.0312 µM
- MIC [3, 28]: < 0.0312 µM
- MIC ([3]; isolate So1, read-out: MIC So1): < 0.0312 µM
- MIC ([3]; isolate i1, read-out: MIC i1): < 0.0312 µM
- MIC ([3]; isolate i11, read-out: MIC i11): < 0.0312 µM
- MIC50 (μM) ([3]; median MIC over ten M. mycetomatis isolates, no asterisk): <0.03 (≦0.03) μM
- Effect on larvae survival Day 4 (words) [4, 29]: prolonged larvae survival
- In vivo efficacy, Enhanced survival compared to control? [4, 46]: no
- In vivo efficacy, Larvae survival % [4, 46]: 11.1%
